Measurements: ChEMBL document CHEMBL1770089, “Synthesis, structure-activity relationship of novel substituted 4H-chromen-1,2,3,4-tetrahydropyrimidine-5-carboxylates as potential anti-mycobacterial and anticancer agents” (2011)
Values after ≈ are worked out from the molar mass of the structure shown. Active and inactive are the calls of the source. No cut-off for these calls is given here.

Tests used:
Type in all cases: functional
[1] = system: HeLa; test: Cytotoxicity against human HeLa cells after 48 hrs by MTT assay; parameters: concentration or dose not given beside the values
[2] = system: Mycobacterium tuberculosis; test: Antituberculosis activity against Mycobacterium tuberculosis H37Rv by agar dilution method
[3] = system: A549; test: Cytotoxicity against human A549 cells after 48 hrs by MTT assay; parameters: concentration or dose not given beside the values
[4] = system: SK-N-SH; test: Cytotoxicity against human SK-N-SH cells after 48 hrs by MTT assay; parameters: concentration or dose not given beside the values

Compound | Activity [1] | MIC [2] | Activity [3] | Activity [4]
CCOC(=O)C1=C(C)NC(=O)NC1c1coc2cc3occc3cc2c1=O (stereo not given) | 51.5% | 34 µM (≈ 12.5 µg/mL) | 29.6% | 37.5%
CCOC(=O)C1=C(c2ccccc2)NC(=S)NC1c1coc2ccccc2c1=O (stereo not given) | 33% | 61.6 µM (≈ 25 µg/mL) | 9.4% | 1.9%
CCOC(=O)C1=C(c2ccccc2)NC(=O)NC1c1coc2c(ccc3occc32)c1=O (stereo not given) | 43.3% | 14.5 µM (≈ 6.25 µg/mL) | 33.3% | 39.4%
CCOC(=O)C1=C(C)NC(=O)NC1c1coc2ccccc2c1=O (stereo not given) | 16.6% | 76.2 µM (≈ 25 µg/mL) | 18.1% | 19%
CCOC(=O)C1=C(C(F)(F)F)NC(=O)NC1c1coc2ccccc2c1=O (stereo not given) | 29.2% | 7.9 µM (≈ 3.02 µg/mL) | inactive | 23.4%
CCOC(=O)C1=C(C(F)(F)F)NC(=O)NC1c1coc2cccc(C)c2c1=O (stereo not given) | 61.3% | 3.91 µM (≈ 1.55 µg/mL) | 22% | 35.9%
CCOC(=O)C1=C(C)NC(=O)NC1c1coc2ccc(C)cc2c1=O (stereo not given) | 16.6% | 36.5 µM (≈ 12.5 µg/mL) | 24.8% | 1.7%
COc1cccc2c1C(=O)c1c(O)c3c(c(O)c1C2=O)C[C@@](O)(C(=O)CO)C[C@@H]3O[C@H]1C[C@H](N)[C@H](O)[C@H](C)O1 [DOXORUBICIN] | 86.5% | – | 55% | 31.8%
COCCOC(=O)C1=C(C)NC(=O)NC1c1coc2ccccc2c1=O (stereo not given) | 38.5% | 69.8 µM (≈ 25 µg/mL) | 23.5% | 23.9%
COCCOC(=O)C1=C(C)NC(=O)NC1c1coc2ccc(Br)cc2c1=O (stereo not given) | 40.2% | 28.7 µM (≈ 12.5 µg/mL) | 29.9% | 38.4%
CCOC(=O)C1=C(c2ccccc2)NC(=S)NC1c1coc2ccc(C)cc2c1=O (stereo not given) | 31.5% | 14.9 µM (≈ 6.26 µg/mL) | 27.2% | 12.1%
CCOC(=O)C1=C(C)NC(=S)NC1c1coc2ccc(C)cc2c1=O (stereo not given) | 43.2% | 34.9 µM (≈ 12.5 µg/mL) | 18.3% | 7%
CCOC(=O)C1=C(C(F)(F)F)NC(=O)NC1c1coc2cc3occc3cc2c1=O (stereo not given) | 40.9% | 7.38 µM (≈ 3.12 µg/mL) | 21.8% | 6.9%
CCOC(=O)C1=C(C)NC(=S)NC1c1coc2ccc(-c3ccccc3)cc2c1=O (stereo not given) | 40.9% | 59.5 µM (≈ 25 µg/mL) | 37.4% | 25.4%
NNC(=O)c1ccncc1 [ISONIAZID] | – | 0.66 µM (≈ 0.0905 µg/mL) | – | –
CCOC(=O)C1=C(CCl)NC(=O)NC1c1coc2ccc(C)cc2c1=O (stereo not given) | 81.4% | 16.6 µM (≈ 6.26 µg/mL) | 46.2% | 55.3%
CCOC(=O)C1=C(c2ccccc2)NC(=O)NC1c1coc2ccc(C)cc2c1=O (stereo not given) | 29.8% | 30.9 µM (≈ 12.5 µg/mL) | 18.6% | inactive
CCOC(=O)C1=C(CCl)NC(=O)NC1c1coc2ccccc2c1=O (stereo not given) | 23.3% | 34.5 µM (≈ 12.5 µg/mL) | 30.7% | 18.6%
CCOC(=O)C1=C(C)NC(=O)NC1c1coc2ccc(Br)cc2c1=O (stereo not given) | 32.8% | 30.8 µM (≈ 12.5 µg/mL) | 51.4% | 31.1%
COCCOC(=O)C1=C(C)NC(=O)NC1c1coc2ccc(C)cc2c1=O (stereo not given) | 40.2% | 34.1 µM (≈ 12.7 µg/mL) | 28.4% | 35.6%

Compound | Activity [1] | MIC [2] | Activity [3] | Activity [4]
CCOC(=O)C1=C(C)NC(=O)NC1c1coc2ccc([N+](=O)[O-])cc2c1=O (stereo not given) | 54.4% | 4.18 µM (≈ 1.56 µg/mL) | inactive | 28.7%
CCOC(=O)C1=C(C)NC(=O)NC1c1coc2ccc(-c3ccccc3)cc2c1=O (stereo not given) | 45.3% | 30.7 µM (≈ 12.4 µg/mL) | 7.2% | inactive
O=C(O)c1cn(C2CC2)c2cc(N3CCNCC3)c(F)cc2c1=O [CIPROFLOXACIN] | – | 9.44 µM (≈ 3.13 µg/mL) | – | –
CCOC(=O)C1=C(C)NC(=O)NC1c1coc2c(ccc3occc32)c1=O (stereo not given) | 42.4% | 34 µM (≈ 12.5 µg/mL) | 33.8% | inactive
COCCOC(=O)C1=C(C)NC(=S)NC1c1coc2ccccc2c1=O (stereo not given) | inactive | 66.8 µM (≈ 25 µg/mL) | inactive | inactive
CCOC(=O)C1=C(C(F)(F)F)NC(=O)NC1c1coc2ccc(-c3ccccc3)cc2c1=O (stereo not given) | 28.6% | 3.39 µM (≈ 1.55 µg/mL) | 31.3% | 10.7%
COCCOC(=O)C1=C(C)NC(=S)NC1c1coc2ccc(C)cc2c1=O (stereo not given) | 17.4% | 32.2 µM (≈ 12.5 µg/mL) | 21.2% | 22.8%
CCOC(=O)C1=C(c2ccccc2)NC(=O)NC1c1coc2ccc(-c3ccccc3)cc2c1=O (stereo not given) | inactive | 25.9 µM (≈ 12.1 µg/mL) | inactive | inactive
COCCOC(=O)C1=C(C)NC(=O)NC1c1coc2c(ccc3occc32)c1=O (stereo not given) | 61.2% | 31.4 µM (≈ 12.5 µg/mL) | 4.5% | 8.4%
COCCOC(=O)C1=C(C)NC(=O)NC1c1coc2cc3occc3cc2c1=O (stereo not given) | 37.6% | 31.4 µM (≈ 12.5 µg/mL) | 34.7% | 34.7%
CCOC(=O)C1=C(C(F)(F)F)NC(=O)NC1c1coc2c(ccc3occc32)c1=O (stereo not given) | 32.8% | 3.67 µM (≈ 1.55 µg/mL) | 27.5% | 34.3%
CCOC(=O)C1=C(C)NC(=O)NC1c1coc2c([N+](=O)[O-])cccc2c1=O (stereo not given) | 60.6% | 4.18 µM (≈ 1.56 µg/mL) | 47.6% | 56%
CCOC(=O)C1=C(C)NC(=O)NC1c1coc2ccc(-c3ccco3)cc2c1=O (stereo not given) | 35.4% | 15.9 µM (≈ 6.25 µg/mL) | 34.5% | 46.4%
CCOC(=O)C1=C(C)NC(=S)NC1c1coc2ccccc2c1=O (stereo not given) | 49.3% | 72.7 µM (≈ 25 µg/mL) | 26.3% | 32.7%
COCCOC(=O)C1=C(C)NC(=O)NC1c1coc2ccc(-c3ccccc3)cc2c1=O (stereo not given) | 33.5% | 57.6 µM (≈ 25 µg/mL) | 34.4% | 13.4%
CCOC(=O)C1=C(c2ccccc2)NC(=O)NC1c1coc2ccccc2c1=O (stereo not given) | 5.3% | 64.1 µM (≈ 25 µg/mL) | 15.4% | 15%
CCOC(=O)C1=C(C)NC(=S)NC1c1coc2ccc(Br)cc2c1=O (stereo not given) | 41.1% | 29.7 µM (≈ 12.6 µg/mL) | 43.5% | 20%
CCOC(=O)C1=C(c2ccccc2)NC(=O)NC1c1coc2cc3occc3cc2c1=O (stereo not given) | 59.1% | 14.5 µM (≈ 6.25 µg/mL) | 13.1% | inactive
CCOC(=O)C1=C(C(F)(F)F)NC(=O)NC1c1coc2ccc(C)cc2c1=O (stereo not given) | 33.5% | 7.86 µM (≈ 3.12 µg/mL) | 37.4% | 45.5%
CC[C@@H](CO)NCCN[C@@H](CC)CO [ETHAMBUTOL] | – | 7.63 µM (≈ 1.56 µg/mL) | – | –
